Laboratory results taken from PubChem BioAssay AID1963959 (Molecular Pharmacology Branch, DTP, NCI, 2024).

System: T-47D spheroids with HUVEC/MSC, viability
Assay: Anticancer human tumor T-47D cell line growth inhibition [PI3K];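 further: spheroids exposed to agents for seven days before reading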;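 on viability, T/C: percent of DMSO vehicle control luminescence so 100% = untreated growth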
Settings: for IC50: curve of first compound; for viability, T/C: stronger effect = lower value; active means viability on the fitted dose curve at most 10% of control; inactive means the rest
In short: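 Targeted small molecules plus PI3K inhibitors, half-log dose series from Cmax (default top 10 microM), were applied to heterotypic spheroids of cancer cells with HUVEC and MSCs. Viability indicated growth inhibition.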

[1] = second compound 0.00316 µM, first compound 0.0316 µM
[2] = second compound 0.00316 µM, first compound 0.1 µM
[3] = second compound 0.00316 µM, first compound 0.316 µM
[4] = second compound 0.00316 µM, first compound 1 µM
[5] = second compound 0.00316 µM, first compound 3.16 µM
[6] = second compound 0.00316 µM, first compound 10 µM
[7] = second compound 0.01 µM, first compound 0.0316 µM
[8] = second compound 0.01 µM, first compound 0.1 µM
[9] = second compound 0.01 µM, first compound 0.316 µM
[10] = second compound 0.01 µM, first compound 1 µM
[11] = second compound 0.01 µM, first compound 3.16 µM
[12] = second compound 0.01 µM, first compound 10 µM
[13] = second compound 0.0316 µM, first compound 0.0316 µM
[14] = second compound 0.0316 µM, first compound 0.1 µM
[15] = second compound 0.0316 µM, first compound 0.316 µM
[16] = second compound 0.0316 µM, first compound 1 µM
[17] = second compound 0.0316 µM, first compound 3.16 µM
[18] = second compound 0.0316 µM, first compound 10 µM
[19] = second compound 0.1 µM, first compound 0.0316 µM
[20] = second compound 0.1 µM, first compound 0.1 µM
[21] = second compound 0.1 µM, first compound 0.316 µM
[22] = second compound 0.1 µM, first compound 1 µM
[23] = second compound 0.1 µM, first compound 3.16 µM
[24] = second compound 0.1 µM, first compound 10 µM
[25] = second compound 0.316 µM, first compound 0.0316 µM
[26] = second compound 0.316 µM, first compound 0.1 µM
[27] = second compound 0.316 µM, first compound 0.316 µM
[28] = second compound 0.316 µM, first compound 1 µM
[29] = second compound 0.316 µM, first compound 3.16 µM
[30] = second compound 0.316 µM, first compound 10 µM
[31] = second compound 1 µM, first compound 0.0316 µM
[32] = second compound 1 µM, first compound 0.1 µM
[33] = second compound 1 µM, first compound 0.316 µM
[34] = second compound 1 µM, first compound 1 µM
[35] = second compound 1 µM, first compound 3.16 µM
[36] = second compound 1 µM, first compound 10 µM

C#Cc1c(F)ccc2cc(O)cc(-c3ncc4c(N5CC6CCC(C5)N6)nc(OCC56CCCN5CC(F)C6)nc4c3F)c12 (stereo not drawn) + COc1c(OCCCN2CCOCC2)ccc2c3n(c(=NC(=O)c4cnc(N)nc4)nc12)CCN3
active: viability, T/C [31] 7.11% | viability, T/C [32] 6.61% | viability, T/C [33] 8.19% | viability, T/C [34] 8.13% | viability, T/C [35] 5.78% | viability, T/C [36] 9.52%
inactive: viability, T/C [1] 102% | viability, T/C [2] 93.1% | viability, T/C [3] 93% | viability, T/C [4] 82.5% | viability, T/C [5] 116% | viability, T/C [6] 109% | viability, T/C [7] 95.1% | viability, T/C [8] 99.9% | viability, T/C [9] 105% | viability, T/C [10] 99.5% | viability, T/C [11] 114% | viability, T/C [12] 111% | viability, T/C [13] 80.5% | viability, T/C [14] 78.8% | viability, T/C [15] 79.8% | viability, T/C [16] 84.8% | viability, T/C [17] 79.2% | viability, T/C [18] 87.5% | viability, T/C [19] 45.1% | viability, T/C [20] 46.4% | viability, T/C [21] 46.8% | viability, T/C [22] 49.2% | viability, T/C [23] 39.6% | viability, T/C [24] 49.5% | viability, T/C [25] 20.2% | viability, T/C [26] 14.5% | viability, T/C [27] 20.5% | viability, T/C [28] 22.3% | viability, T/C [29] 22.3% | viability, T/C [30] 27.1%
< 31.6 nM: IC50 (second compound 0.1 µM) | IC50 (second compound 0.316 µM) | IC50 (second compound 1 µM)
> 10000 nM: IC50 (second compound 0.00316 µM) | IC50 (second compound 0.01 µM) | IC50 (second compound 0.0316 µM)

C=CC(=O)N1CCN(c2nc(=O)n(-c3c(C)ccnc3C(C)C)c3nc(-c4c(O)cccc4F)c(F)cc23)C(C)C1 (stereo not drawn) + COc1c(OCCCN2CCOCC2)ccc2c3n(c(=NC(=O)c4cnc(N)nc4)nc12)CCN3
< 31.6 nM: IC50 (second compound 0.1 µM) | IC50 (second compound 0.316 µM) | IC50 (second compound 1 µM)
inactive: viability, T/C [1] 100% | viability, T/C [2] 124% | viability, T/C [3] 106% | viability, T/C [4] 108% | viability, T/C [5] 101% | viability, T/C [6] 113% | viability, T/C [7] 101% | viability, T/C [8] 91.6% | viability, T/C [9] 96.1% | viability, T/C [10] 91% | viability, T/C [11] 138% | viability, T/C [12] 104% | viability, T/C [13] 84.5% | viability, T/C [14] 67.6% | viability, T/C [15] 74.6% | viability, T/C [16] 109% | viability, T/C [17] 95.6% | viability, T/C [18] 90.6% | viability, T/C [19] 46.2% | viability, T/C [20] 51% | viability, T/C [21] 41.1% | viability, T/C [22] 45.1% | viability, T/C [23] 48.3% | viability, T/C [24] 53.1% | viability, T/C [25] 21.3% | viability, T/C [26] 18.4% | viability, T/C [27] 18.2% | viability, T/C [28] 21% | viability, T/C [29] 20.9% | viability, T/C [30] 35%
active: viability, T/C [31] 6.05% | viability, T/C [32] 6.58% | viability, T/C [33] 5.84% | viability, T/C [34] 9.25% | viability, T/C [35] 11.6% | viability, T/C [36] 19.2%
> 10000 nM: IC50 (second compound 0.00316 µM) | IC50 (second compound 0.01 µM) | IC50 (second compound 0.0316 µM)

CC(Cn1ccc(-c2ccc(C#N)c(Cl)c2)n1)NC(=O)c1cc(C(C)O)[nH]n1 (stereo not drawn) + COc1c(OCCCN2CCOCC2)ccc2c3n(c(=NC(=O)c4cnc(N)nc4)nc12)CCN3
inactive: viability, T/C [1] 89% | viability, T/C [2] 96% | viability, T/C [3] 96.1% | viability, T/C [4] 88% | viability, T/C [5] 104% | viability, T/C [6] 75.3% | viability, T/C [7] 103% | viability, T/C [8] 83.3% | viability, T/C [9] 101% | viability, T/C [10] 93.5% | viability, T/C [11] 95.4% | viability, T/C [12] 59.5% | viability, T/C [13] 69.2% | viability, T/C [14] 77.4% | viability, T/C [15] 74.7% | viability, T/C [16] 82.1% | viability, T/C [17] 79% | viability, T/C [18] 45.7% | viability, T/C [19] 38.9% | viability, T/C [20] 39.2% | viability, T/C [21] 41.5% | viability, T/C [22] 45.7% | viability, T/C [23] 40.7% | viability, T/C [24] 33.9% | viability, T/C [25] 14.8% | viability, T/C [26] 15.9% | viability, T/C [27] 15.3% | viability, T/C [28] 14.4% | viability, T/C [29] 18.7% | viability, T/C [30] 20.4%
> 10000 nM: IC50 (second compound 0.00316 µM) | IC50 (second compound 0.01 µM)
active: viability, T/C [31] 8.77% | viability, T/C [32] 8.22% | viability, T/C [33] 7.63% | viability, T/C [34] 5.85% | viability, T/C [35] 7.24% | viability, T/C [36] 3.67%
8440 nM: IC50 (second compound 0.0316 µM)
< 31.6 nM: IC50 (second compound 0.1 µM) | IC50 (second compound 0.316 µM) | IC50 (second compound 1 µM)

CC1(C)CCC(Nc2ncc(C(F)(F)F)c(-c3c[nH]c4c(P(C)(C)=O)c(C#N)ccc34)n2)CN1 (stereo not drawn) + COc1c(OCCCN2CCOCC2)ccc2c3n(c(=NC(=O)c4cnc(N)nc4)nc12)CCN3
< 31.6 nM: IC50 (second compound 0.0316 µM) | IC50 (second compound 0.1 µM) | IC50 (second compound 0.316 µM) | IC50 (second compound 1 µM)
active: viability, T/C [30] 3.95% | viability, T/C [32] 12.8% | viability, T/C [33] 8.27% | viability, T/C [34] 7.59% | viability, T/C [35] 10.4% | viability, T/C [36] 2.66%
> 10000 nM: IC50 (second compound 0.00316 µM) | IC50 (second compound 0.01 µM)
inactive: viability, T/C [1] 70.8% | viability, T/C [2] 60.4% | viability, T/C [3] 68% | viability, T/C [4] 74.5% | viability, T/C [5] 77.7% | viability, T/C [6] 57.5% | viability, T/C [7] 67.6% | viability, T/C [8] 62.4% | viability, T/C [9] 55.2% | viability, T/C [10] 50.2% | viability, T/C [11] 73.8% | viability, T/C [12] 46% | viability, T/C [13] 44.3% | viability, T/C [14] 42.6% | viability, T/C [15] 42.8% | viability, T/C [16] 38.8% | viability, T/C [17] 46.9% | viability, T/C [18] 14.1% | viability, T/C [19] 28% | viability, T/C [20] 33.8% | viability, T/C [21] 28.8% | viability, T/C [22] 29.8% | viability, T/C [23] 26.5% | viability, T/C [24] 8.25% | viability, T/C [25] 20% | viability, T/C [26] 24.4% | viability, T/C [27] 15.6% | viability, T/C [28] 19.1% | viability, T/C [29] 17.4% | viability, T/C [31] 8.6%
